PubChem BioAssay AID1963850 (Molecular Pharmacology Branch, DTP, NCI, 2024)

System: 192522-019-R-J2-PDC complex tumor spheroid viability
Experiment: Anticancer human tumor 192522-019-R-J2-PDC patient-derived colon adenocarcinoma cell line growth inhibition [POLQ]
Conditions: for IC50: curve of first compound; for viability, T/C: stronger effect = lower value
Procedure, shortened: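 Patient-derived tumour cells were co-cultured with HUVEC and mesenchymal stem cells as multicellular spheroids at 37 °C. They were treated with POLQ inhibitors (novobiocin, ART-558, RP6685) alone or combined with other agents. Top concentrations were at or near clinical Cmax (otherwise 10 microM; SN-38 at 1 microM), decreasing in half-log steps.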

[1] = second compound 0.0316 µM, first compound 0.0316 µM
[2] = second compound 0.0316 µM, first compound 0.1 µM
[3] = second compound 0.0316 µM, first compound 0.316 µM
[4] = second compound 0.0316 µM, first compound 1 µM
[5] = second compound 0.1 µM, first compound 0.0316 µM
[6] = second compound 0.1 µM, first compound 0.1 µM
[7] = second compound 0.1 µM, first compound 0.316 µM
[8] = second compound 0.1 µM, first compound 1 µM
[9] = second compound 0.316 µM, first compound 0.0316 µM
[10] = second compound 0.316 µM, first compound 0.1 µM
[11] = second compound 0.316 µM, first compound 0.316 µM
[12] = second compound 0.316 µM, first compound 1 µM
[13] = second compound 1 µM, first compound 0.0316 µM
[14] = second compound 1 µM, first compound 0.1 µM
[15] = second compound 1 µM, first compound 0.316 µM
[16] = second compound 1 µM, first compound 1 µM
[17] = second compound 3.16 µM, first compound 0.0316 µM
[18] = second compound 3.16 µM, first compound 0.1 µM
[19] = second compound 3.16 µM, first compound 0.316 µM
[20] = second compound 3.16 µM, first compound 1 µM
[21] = second compound 10 µM, first compound 0.0316 µM
[22] = second compound 10 µM, first compound 0.1 µM
[23] = second compound 10 µM, first compound 0.316 µM
[24] = second compound 10 µM, first compound 1 µM
[25] = second compound 0.0316 µM, first compound 3.16 µM
[26] = second compound 0.0316 µM, first compound 10 µM
[27] = second compound 0.1 µM, first compound 3.16 µM
[28] = second compound 0.1 µM, first compound 10 µM
[29] = second compound 0.316 µM, first compound 3.16 µM
[30] = second compound 0.316 µM, first compound 10 µM
[31] = second compound 1 µM, first compound 3.16 µM
[32] = second compound 1 µM, first compound 10 µM
[33] = second compound 3.16 µM, first compound 3.16 µM
[34] = second compound 3.16 µM, first compound 10 µM
[35] = second compound 10 µM, first compound 3.16 µM
[36] = second compound 10 µM, first compound 10 µM
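Also: spheroids exposed to drugs for seven days before reading.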
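For viability, T/C in this document: 100% = DMSO vehicle control viability in luminescence.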

C=CCn1c(=O)c2cnc(Nc3ccc(N4CCN(C)CC4)cc3)nc2n1-c1cccc(C(C)(C)O)n1 + COC1C(OC(N)=O)C(O)C(Oc2ccc3c(O)c(NC(=O)c4ccc(O)c(CC=C(C)C)c4)c(=O)oc3c2C)OC1(C)C
IC50 (second compound 0.0316 µM): 0.664 µM
IC50 (second compound 0.1 µM): 0.675 µM
IC50 (second compound 0.316 µM): 0.656 µM
IC50 (second compound 1 µM): 0.704 µM
IC50 (second compound 3.16 µM): 0.737 µM
IC50 (second compound 10 µM): 0.761 µM
viability, T/C (second compound 0.0316 µM, first compound 0.00316 µM): 108%
viability, T/C (second compound 0.0316 µM, first compound 0.01 µM): 87.3%
viability, T/C [1]: 98.5%
viability, T/C [2]: 93.9%
viability, T/C [3]: 89.2%
viability, T/C [4]: 28.2%
viability, T/C (second compound 0.1 µM, first compound 0.00316 µM): 101%
viability, T/C (second compound 0.1 µM, first compound 0.01 µM): 93.8%
viability, T/C [5]: 98%
viability, T/C [6]: 90.3%
viability, T/C [7]: 82.2%
viability, T/C [8]: 33.7%
viability, T/C (second compound 0.316 µM, first compound 0.00316 µM): 98.6%
viability, T/C (second compound 0.316 µM, first compound 0.01 µM): 91.6%
viability, T/C [9]: 99.4%
viability, T/C [10]: 105%
viability, T/C [11]: 74.5%
viability, T/C [12]: 35.9%
viability, T/C (second compound 1 µM, first compound 0.00316 µM): 95.4%
viability, T/C (second compound 1 µM, first compound 0.01 µM): 96.1%
viability, T/C [13]: 103%
viability, T/C [14]: 106%
viability, T/C [15]: 84.3%
viability, T/C [16]: 34.9%
viability, T/C (second compound 3.16 µM, first compound 0.00316 µM): 92.6%
viability, T/C (second compound 3.16 µM, first compound 0.01 µM): 95.4%
viability, T/C [17]: 90.7%
viability, T/C [18]: 93.5%
viability, T/C [19]: 88%
viability, T/C [20]: 36.2%
viability, T/C (second compound 10 µM, first compound 0.00316 µM): 98.3%
viability, T/C (second compound 10 µM, first compound 0.01 µM): 97.3%
viability, T/C [21]: 102%
viability, T/C [22]: 90%
viability, T/C [23]: 96.2%
viability, T/C [24]: 35.7%

CC1COCCN1c1cc(C2(S(C)(=N)=O)CC2)nc(-c2ccnc3[nH]ccc23)n1 (stereo unspecified) + COC1C(OC(N)=O)C(O)C(Oc2ccc3c(O)c(NC(=O)c4ccc(O)c(CC=C(C)C)c4)c(=O)oc3c2C)OC1(C)C
IC50 (second compound 0.0316 µM): 4.72 µM
IC50 (second compound 0.1 µM): 4.58 µM
IC50 (second compound 0.316 µM): 3.33 µM
IC50 (second compound 1 µM): 5.31 µM
IC50 (second compound 3.16 µM): 5.42 µM
IC50 (second compound 10 µM): 5.18 µM
viability, T/C [1]: 108%
viability, T/C [2]: 94.3%
viability, T/C [3]: 99.6%
viability, T/C [4]: 97.3%
viability, T/C [25]: 61.3%
viability, T/C [26]: 28.7%
viability, T/C [5]: 118%
viability, T/C [6]: 99%
viability, T/C [7]: 103%
viability, T/C [8]: 95.4%
viability, T/C [27]: 56.2%
viability, T/C [28]: 36.1%
viability, T/C [9]: 103%
viability, T/C [10]: 99.2%
viability, T/C [11]: 108%
viability, T/C [12]: 95.8%
viability, T/C [29]: 51%
viability, T/C [30]: 31.9%
viability, T/C [13]: 101%
viability, T/C [14]: 103%
viability, T/C [15]: 99%
viability, T/C [16]: 97.3%
viability, T/C [31]: 63.1%
viability, T/C [32]: 34%
viability, T/C [17]: 102%
viability, T/C [18]: 109%
viability, T/C [19]: 104%
viability, T/C [20]: 91.8%
viability, T/C [33]: 60.9%
viability, T/C [34]: 37.8%
viability, T/C [21]: 104%
viability, T/C [22]: 103%
viability, T/C [23]: 114%
viability, T/C [24]: 95.7%
viability, T/C [35]: 62.9%
viability, T/C [36]: 33.2%

CCCS(=O)(=O)Nc1ccc(F)c(C(=O)c2c[nH]c3ncc(-c4ccc(Cl)cc4)cc23)c1F + COC1C(OC(N)=O)C(O)C(Oc2ccc3c(O)c(NC(=O)c4ccc(O)c(CC=C(C)C)c4)c(=O)oc3c2C)OC1(C)C
IC50 (second compound 0.0316 µM): > 10 µM
IC50 (second compound 0.1 µM): > 10 µM
IC50 (second compound 0.316 µM): > 10 µM
IC50 (second compound 1 µM): > 10 µM
IC50 (second compound 3.16 µM): > 10 µM
IC50 (second compound 10 µM): > 10 µM
viability, T/C [1]: 115%
viability, T/C [2]: 97.6%
viability, T/C [3]: 110%
viability, T/C [4]: 96.9%
viability, T/C [25]: 124%
viability, T/C [26]: 97.9%
viability, T/C [5]: 105%
viability, T/C [6]: 103%
viability, T/C [7]: 110%
viability, T/C [8]: 108%
viability, T/C [27]: 107%
viability, T/C [28]: 113%
viability, T/C [9]: 109%
viability, T/C [10]: 110%
viability, T/C [11]: 105%
viability, T/C [12]: 106%
viability, T/C [29]: 104%
viability, T/C [30]: 108%
viability, T/C [13]: 104%
viability, T/C [14]: 100%
viability, T/C [15]: 107%
viability, T/C [16]: 103%
viability, T/C [31]: 101%
viability, T/C [32]: 100%
viability, T/C [17]: 110%
viability, T/C [18]: 102%
viability, T/C [19]: 108%
viability, T/C [20]: 97.3%
viability, T/C [33]: 106%
viability, T/C [34]: 117%
viability, T/C [21]: 107%
viability, T/C [22]: 102%
viability, T/C [23]: 103%
viability, T/C [24]: 101%
viability, T/C [35]: 124%
viability, T/C [36]: 117%
